Key:
[1] = target: T1, β2-AR (Homo sapiens, UniProt P07550); assay: [3H]DHA radioligand displacement on membranes of HEK293T cells expressing β2-AR; settings: for Ki: β2-AR
Target sequence in this assay (P07550 whole entry): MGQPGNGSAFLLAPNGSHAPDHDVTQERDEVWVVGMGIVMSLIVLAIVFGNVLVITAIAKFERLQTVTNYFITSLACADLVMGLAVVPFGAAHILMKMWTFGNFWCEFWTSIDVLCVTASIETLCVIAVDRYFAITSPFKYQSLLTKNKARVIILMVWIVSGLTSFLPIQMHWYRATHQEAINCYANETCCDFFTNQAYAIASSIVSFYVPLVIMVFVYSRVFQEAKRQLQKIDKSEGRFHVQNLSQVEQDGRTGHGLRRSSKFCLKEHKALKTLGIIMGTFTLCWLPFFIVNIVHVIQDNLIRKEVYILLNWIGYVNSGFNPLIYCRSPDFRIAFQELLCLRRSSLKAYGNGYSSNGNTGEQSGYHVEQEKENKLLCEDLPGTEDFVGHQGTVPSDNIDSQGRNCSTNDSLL
Description: Membranes of HEK293T-cells transiently expressing the receptor of interest were co-incubated with the tritiated β1/β2-AR antagonist dihydroalprenolol ([^3H]DHA, Figure S2 depicts saturation binding experiments), together with increasing concentrations of the competing unlabeled ligand.
Two million HEK293T cells were seeded in a 10cm^2 dish and were transiently transfected the next day with 1 μg human β1-AR or the β2-AR plasmid DNA, 4 μg empty pcDEF3 plasmid DNA and 30 μg linear 25 kDa polyethyleneimine (PEI; Polysciences Warrington, USA) in a 150 mM NaCl solution. […] Two days after transfection, cells were resuspended and washed (3 times) with PBS and pelleted by centrifugation steps at 1500 g. After the final centrifugation step, cell pellets were reconstituted into ice-cold Tris-HCl buffer (15 mM, supplemented with 0.3 mM EDTA and 2 mM MgCl2 at pH7.4) and dounce-homogenised by plunging the pestle 10 times with 1,500 rpm (Tamson, the Netherlands). The homogenates were frozen and thawed twice using liquid nitrogen, after which the membranes were isolated using an ultra-centrifuge L70 at 40,000 g (Beckman Coulter, USA). Cell pellets were then washed and reconstituted in ice-cold 20 mM Tris-HCl buffer supplemented with 250 mM Sucrose at pH 7.4. Finally, the membrane samples where homogenized using a 23-gauge needle, snap-frozen with liquid nitrogen and stored until further experimentation at −80 °C. The protein content was determined using a BCA protein assay kit (Thermo Scientific, USA).
On the day of the experiment 0.25–0.5 μg membranes expressing either the β1-AR or the β2-AR, were co-incubated with [^3H]DHA (Perkin Elmer, USA) and increasing concentrations unlabeled ligand in HBSS buffer (Thermo Scientific, with Ca^2+ and Mg^2+) supplemented with 0.1% BSA for 1 h at 25 °C under gentile agitation. Either a 4 nM or 1 nM concentration of [^3H]DHA was used in combination with membranes expressing either the β1-AR or β2-AR, respectively. Binding reactions were terminated by filtration over a PEI coated GF/C filter (Perkin Elmer) using ice-cold 50 mM Tris-HCl buffer with 500 mM NaCl at pH 7.4. GF/C plates were dried at 52 °C and filter bound [^3H]DHA was quantified by adding 25 μL/well Microscint-O scintillation liquid and counting luminescence using the Wallac Microbeta counter, as described before.
IC50 values were determined by fitting the concentration-dependent displacement of [^3H]DHA by unlabeled ligands, with a three-parameter sigmoidal model in GraphPad Prism. […] Competition binding graphs represent the pooled data of ≥3 experiments, normalized to the fitted top and bottom of the reference sigmoidal displacement curve of unlabeled DHA.

[2] = target: T1, β2-AR; assay: Conformational β2-AR BRET sensor in HEK293A cells
Target sequence in this assay (P07550 1-369): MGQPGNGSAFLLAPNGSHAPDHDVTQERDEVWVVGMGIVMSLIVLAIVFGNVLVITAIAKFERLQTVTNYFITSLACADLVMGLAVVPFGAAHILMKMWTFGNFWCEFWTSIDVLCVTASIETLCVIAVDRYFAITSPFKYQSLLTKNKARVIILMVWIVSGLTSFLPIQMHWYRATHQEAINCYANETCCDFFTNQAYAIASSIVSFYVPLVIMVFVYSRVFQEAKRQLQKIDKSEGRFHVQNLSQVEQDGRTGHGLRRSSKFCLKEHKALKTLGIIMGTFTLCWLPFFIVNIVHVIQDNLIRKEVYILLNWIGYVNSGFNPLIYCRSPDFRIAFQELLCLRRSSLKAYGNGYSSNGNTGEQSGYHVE
Description: The next day, cells were washed with HBSS and incubated with a 1/1000 stock solution of furimazine. […] Wells pre-incubated with 0.1% DMSO/HBSS control were treated with vehicle control.
Raw BRET ratios were defined as acceptor emission/donor emission.
Antagonist pKB values were calculated using the agonist potency and concentration together with the antagonist IC50 values, using the Cheng-Prusoff equation.

[3] = Cis-to-trans thermal relaxation, Arrhenius extrapolation; assay type: physicochemical; settings: PSScis sample 25 μM in HBSS buffer with 1% DMSO; Arrhenius extrapolation to 20 °C
Description: Solubility in buffer was explored for all compounds using nephelometry ([Bevan and Lloyd, 2000]) and these studies indicate good solubility of all azobenzene photoswiches up to at least 100 μM (Figure S1). […] For all compounds, 360 nm induces a large change in absorbance spectrum compared with the non-illuminated (dark) compounds (Table 1, Figure 2A, and S1), indicating photoisomerization to the cis-isomer. The absorbance peak (λmax) of Opto-prop-1-3 ranged between 319 and 347 nm for the trans-isomers and between 423 and 429 for the cis-isomers (Table 1), as is typical for azobenzene compounds ([Hauwert et al., 2018]). […] The photochemical conversions were determined by continuous illumination of the Opto-prop compounds with near UV-light (360 ± 20 nm) as 10-mM solutions in DMSO. Based on LCMS analysis, it was observed that all compounds obtained a high level of conversion to the cis-isomer with a photostationary state (PSS) of >88 area % cis-isomer (i.e. PSScis; Table 1). Subsequent back-switching to PSStrans with 434 nm maintained 22–29 area % cis-isomer (Table 1). The thermal relaxation of the PSScis state of the photoswitchable ligands was monitored over time by measuring absorbance at 254 nm. Only minor thermal relaxation to the trans-isomer could be detected at 20°C (not shown). An estimate of the relaxation rate at 20 °C was determined using a method by Priimagi et al. ([Ahmed et al., 2017]), which was performed in Hanks’ balanced salt solution (HBSS) using increased temperatures to enhance the speed of thermal relaxation. The Opto-prop ligands are all very stable as cis-isomer after illumination, with thermal relaxation half-lives of >10 days at 20 °C (See Table 1 and Figure S1).
Cis-to-trans thermal relaxations were performed in the dark at 25 μM of the PSS360 state of the Opto-prop-1, -2 or -3 in HBSS buffer with 1% DMSO at various temperatures (60°C, 70°C and 80°C). Absorbance was repeatedly measured at 320, 320 and 347 nm for Opto-prop-1, -2 or -3, respectively, with 60 s intervals.

difference in binding affinity β2-AR vs β1-AR ([1]; cis-isomer): 1.9 log unit
selectivity in binding β2-AR over β1-AR ([1]; cis-isomer (PSScis)): 78 fold
fold Ki trans vs PSScis at β2-AR ([1]; fold difference between Ki of trans and Ki at PSScis): 587 fold
Active state at β2-AR ([1]; isomer state with higher affinity): cis
Ki ([1]; pKi PSScis, illuminated to PSScis (360 nm) before experiment): 2.51 nM
Ki ([1]; pKi at PSStrans, at PSStrans (434 nm back-switching)): 31.6 nM
Ki ([1]; pKi trans, without prior illumination (trans-isomer)): 1580 nM
IC50 [2]: 31.6 nM
Kb [2]: 2 nM
t1/2 20°C (thermal relaxation of cis-isomer) [3]: >10 days
SMILES: CC(C)NCC(O)COc1cccc(N=Nc2ccccc2)c1 (stereo not shown) [Opto-prop-2]

Reference: publication PMC9436767, “Optical control of the β2-adrenergic receptor with opto-prop-2: A cis-active azobenzene analog of propranolol” (iScience, 2022)
